Reference: patent US9522884B2, “Compositions and methods for the treatment of metabolic disorders” (CELLIXBIO PRIVATE LIMITED, priority 2012, dated 2016)

Legend:
STZ-diabetic rats = assay: Prevention of arterial stiffening in diabetes: STZ-diabetic rats treated 8 weeks via drinking water; assay type: in vivo, Male Wistar rats; settings: STZ-diabetic rats (DM), 1 g·L-1 in drinking water, n = 12, mean ± SEM
Method: (§1) Diabetes was induced in rats by a single tail vein injection with 55 mg·kg-1 steptozotocin (STZ). After induction of hyperglycaemia, animals were treated for 8 weeks with pyridoxamine (1 g·L-1 in drinking water) and Formula-I (1-2) (1 g·L-1 in drinking water) were compared with the age-matched untreated diabetic controls. Pulse wave reflection along the vasculature was derived using the impulse response function of the filtered aortic input impedance spectra.
(§2) Male Wistar rats at 2 months were randomly divided into six groups (n=12 in each group) as follows: (i) normal controls (NC); (ii) STZ-diabetic rats (DM); (iii) NC treated with PM (NC+PM); (iv) NC treated with Formula-I (1-2) (NC+Formula-I (1-2)); (v) DM treated with PM (DM+PM); and (vi) DM treated with Formula-I (1-2) (DM+Formula-I (1-2)). Diabetes was induced in animals by a single tail vein injection with 55 mg·kg-1 STZ in 0.1 M citrate buffer (pH 4.5). After confirmation of the development of hyperglycaemia (2 days later) by blood glucose determination using a sure step Test Strip, rats were randomly allocated into a vehicle-treated diabetic group, and a treatment group receiving PM in drinking water of 1 g·L-1 and Formula-I (1-2) in drinking water of 1 g·L-1. Animals were studied 8 weeks after exposure to PM to determine its effects on the pulsatile nature of blood flows in the diabetic arteries.
(§3) Effects of Diabetes and Pyridoxamine and Formula-I (1-2) on Blood Glucose Level, Body Weight, Left Ventricular Weight and Aortic Pressure Profile in Male Wistar Rats: […]

[1] = tested on: normal controls (NC) rats; assay: Normal control rats treated 8 weeks via drinking water (same study); assay type: in vivo, Male Wistar rats; settings: 1 g·L-1 in drinking water, n = 12, mean ± SEM
Method: as §1, §2, §3

CC/C=C\C/C=C\C/C=C\C/C=C\C/C=C\CCCC(=O)OC(C)OC(=O)NCc1c(CO)cnc(C)c1O (stereo not shown) [Formula 1(1-2)]
BW (body weight) (STZ-diabetic rats): 299.8 ± 14.9 g | Glucose (STZ-diabetic rats): 4.128 ± 0.189 mg/mL | LVW (left ventricular weight) (STZ-diabetic rats): 0.599 ± 0.0349 g | LVW/BW (STZ-diabetic rats): 1.989 ± 0.034 mg/g | Pd (diastolic aortic pressure) (STZ-diabetic rats): 72.5 ± 1.98 mmHg | Pm (mean aortic pressure) (STZ-diabetic rats): 88.9 ± 1.96 mmHg | Ps (systolic aortic pressure) (STZ-diabetic rats): 102.7 ± 1.098 mmHg | BW (body weight) [1]: 418.0 ± 13.8 g | Glucose [1]: 1.051 ± 0.014 mg/mL | LVW (left ventricular weight) [1]: 0.789 ± 0.016 g | LVW/BW [1]: 1.69 ± 0.04 mg/g | Pd (diastolic aortic pressure) [1]: 76.7 ± 4.10 mmHg | Pm (mean aortic pressure) [1]: 91.4 ± 3.7 mmHg | Ps (systolic aortic pressure) [1]: 103.1 ± 2.5 mmHg

Cc1ncc(CO)c(CN)c1O [PM, pyridoxamine]
BW (body weight) (STZ-diabetic rats): 296.3 ± 16.4 g | Glucose (STZ-diabetic rats): 4.305 ± 0.209 mg/mL | LVW (left ventricular weight) (STZ-diabetic rats): 0.609 ± 0.029 g | LVW/BW (STZ-diabetic rats): 2.07 ± 0.04 mg/g | Pd (diastolic aortic pressure) (STZ-diabetic rats): 73.2 ± 2.1 mmHg | Pm (mean aortic pressure) (STZ-diabetic rats): 89.9 ± 2.0 mmHg | Ps (systolic aortic pressure) (STZ-diabetic rats): 103.3 ± 2.0 mmHg | BW (body weight) [1]: 420.0 ± 11.5 g | Glucose [1]: 1.004 ± 0.032 mg/mL | LVW (left ventricular weight) [1]: 0.722 ± 0.023 g | LVW/BW [1]: 1.72 ± 0.03 mg/g | Pd (diastolic aortic pressure) [1]: 77.6 ± 3.0 mmHg | Pm (mean aortic pressure) [1]: 92.5 ± 2.7 mmHg | Ps (systolic aortic pressure) [1]: 106.0 ± 2.5 mmHg
